Assay results taken from patent publication US9822108B2, “Antimicrobial agents” (RUTGERS, THE STATE UNIVERSITY OF NEW JERSEY, priority 2012, dated 2017).
Values after ≈ are worked out from the molar mass of the structure shown.

Columns and labels:
[1] = tested on: methicillin-susceptible Staphylococcus aureus (MSSA); experiment: Antibacterial assay (Test C, broth microdilution MIC) against MSSA; type: cell-based; settings: minimal inhibitory concentration, 37° C., growth read after 24 to 48 hours at OD 600 nm, read-out: MSSA (MIC ug/ml)
Protocol: (§1) Test C. Antibacterial Assay.
(§2) Antibacterial activity can be determined as per Clinical and Laboratory Standards Institute (CLSI) guidelines using a broth microdilution assay in which log-phase bacteria are grown at 37° C. in appropriate medium containing two-fold serial dilutions of a compound to yield final concentrations ranging from 256 to 0.06 μg/mL. For determination of minimal inhibitory concentration (MIC) values, bacterial growth is monitored after 24 to 48 hours by measuring optical density at 600 nm.
(§3) Using a procedure similar to Test C, representative compounds of the invention were tested against methicillin-susceptible Staphylococcus aureus (MSSA) and methicillin-resistant Staphylococcus aureus (MRSA).

[2] = tested on: methicillin-resistant Staphylococcus aureus (MRSA); experiment: Antibacterial assay (Test C, broth microdilution MIC) against MRSA; type: cell-based; settings: minimal inhibitory concentration, 37° C., growth read after 24 to 48 hours at OD 600 nm, read-out: MRSA (MIC ug/ml)
Protocol: as §1, §2, §3

| SMILES | MIC [1] | MIC [2] |
| --- | --- | --- |
| C[n+]1cc(-c2ccccc2)nc2ccccc21 [Example 1] | 2 µg/mL | 8 µg/mL |
| C[n+]1cc(-c2cccc(F)c2)nc2ccccc21 [Example 2] | 2 µg/mL | 4 µg/mL |
| C[n+]1cc(-c2cccc(-c3ccccc3)c2)nc2ccccc21 [Example 3] | 0.25 µg/mL | 0.25 µg/mL |
| C[n+]1cc(-c2cccc(C(C)(C)C)c2)nc2ccccc21 [Example 4] | 0.5 µg/mL | 1 µg/mL |
| C[n+]1cc(-c2ccc(C(C)(C)C)cc2)nc2ccccc21 [Example 5] | 0.5 µg/mL | 1 µg/mL |
| COC(=O)c1cc(-c2ccc(C(C)(C)C)cc2)cc(-c2c[n+](C)c3ccccc3n2)c1 [Example 6] | 0.5 µg/mL | 1 µg/mL |
| C[n+]1cc(-c2cc(C(N)=O)cc(-c3ccc(C(C)(C)C)cc3)c2)nc2ccccc21 [Example 7] | 2 µg/mL | 2 µg/mL |
| C[n+]1cc(-c2cc(C(=O)NCCO)cc(-c3ccc(C(C)(C)C)cc3)c2)nc2ccccc21 [Example 8] | 4 µg/mL | 4 µg/mL |
| CC(C)(C)c1ccc(-c2cc(C(=O)NCCN)cc(-c3cnc4ccccc4n3)c2)cc1 [Example 9] | 4 µg/mL (≈ 9.42 µM) | 4 µg/mL (≈ 9.42 µM) |
| CC(C)(C)c1ccc(-c2cnc3c(CNC(=N)N)cccc3n2)cc1 [Example 10] | 2 µg/mL (≈ 6 µM) | 2 µg/mL (≈ 6 µM) |
| CC(C)(C)c1cccc(-c2cnc3c(CNC(=N)N)cccc3n2)c1 [Example 11] | 1 µg/mL (≈ 3 µM) | 2 µg/mL (≈ 6 µM) |
| CC(C)(C)c1ccc(-c2ncnc3c(CNC(=N)N)cccc23)cc1 [Example 12] | 2 µg/mL (≈ 6 µM) | 4 µg/mL (≈ 12 µM) |

The next lines start with the values.

| MIC [1] | MIC [2] | SMILES |
| --- | --- | --- |
| 32 µg/mL (≈ 96.3 µM) | 64 µg/mL (≈ 193 µM) | CC(=N)NCc1cccc2c(-c3ccc(C(C)(C)C)cc3)ncnc12 [Example 13] |
| 32 µg/mL (≈ 110 µM) | 64 µg/mL (≈ 220 µM) | CC(C)(C)c1ccc(-c2ncnc3c(CN)cccc23)cc1 [Example 14] |
| > 64 µg/mL | > 64 µg/mL | Cc1cccc(-c2nc3ccccc3nc2NCCN)c1 [Example 15] |
| 8 µg/mL (≈ 24 µM) | 64 µg/mL (≈ 192 µM) | CC(C)(C)c1ccc(-c2cccc3c(CNC(=N)N)ncnc23)cc1 [Example 16] |
| 4 µg/mL (≈ 12 µM) | 8 µg/mL (≈ 24 µM) | CC(C)(C)c1ccc(-c2ccnc3c(CNC(=N)N)ccnc23)cc1 [Example 17] |
| > 64 µg/mL | > 64 µg/mL | CC(C)(C)c1ccc(-c2ccnc3c(CN)ccnc23)cc1 [Example 18] |
| 16 µg/mL (≈ 48 µM) |  | CC(C)(C)c1ccc(-c2nnc(CNC(=N)N)c3ccccc23)cc1 [Example 19] |
| 4 µg/mL (≈ 12 µM) |  | CC(C)(C)c1cccc(-c2nc(CNC(=N)N)c3ccccc3n2)c1 [Example 20] |
| 2 µg/mL (≈ 6 µM) | 2 µg/mL (≈ 6 µM) | CC(C)(C)c1cccc(-c2cnc3cccc(CNC(=N)N)c3n2)c1 [Example 21] |
| 4 µg/mL (≈ 12 µM) | 8 µg/mL (≈ 24 µM) | CC(C)(C)c1cccc(-c2cnc3cc(CNC(=N)N)ccc3n2)c1 [Example 22] |
